For the data set the following is noted: Crystal; visual observation.

Numbers after ± are expanded uncertainties.

For the molecule `CC1=CC(=O)[N-]S(=O)(=O)O1.[K+]` [acesulfame potassium], the Normal melting temperature was 229.00 ± 1 °C.

Source of the values: the NIST ThermoML archive (doi:10.1021/je700713q).
